For orientation: kinetic solubility means the concentration staying in solution when a stock, usually in DMSO, is diluted into the medium.

Structures are written as SMILES. Values after ≈ are worked out from the molar mass of the structure shown.

For the data set the following is noted: buffer; pH 7.4; 200.0 µM.
In turn, `O=C(CN1C(=O)S/C(=C\c2ccccn2)C1=O)Nc1ccc(F)cc1` showed a solubility (kinetic) of 0.9 µg/mL (≈ 2.52 µM).

Regarding `C=CCSc1nc2sc3c(c2c(=O)n1-c1ccc(C)cc1)CCN(C)C3`, the kinetic solubility came out at 22.3 µg/mL (≈ 58.1 µM).

`CCOC(=O)/C(C#N)=C/Nc1cc(C(C)(C)C)sc1C(C)=O`: the solubility (kinetic) was < 0.3 µg/mL.

`Cc1c(C)n(CCc2ccccc2)c2ncnc(NCCCN(C)C)c12`: the kinetic solubility was > 52.7 µg/mL.

Consider `N#CC1(NC(=O)CN2CCc3ccccc3C2)CCCC1`, for which the solubility (kinetic) was > 42.5 µg/mL.

On to `O=C(/C=C/c1cccs1)NC(=S)Nc1ccccc1`, for which the kinetic solubility came to 1.3 µg/mL (≈ 4.51 µM).

As for `O=C1CC(=O)N(c2ccccc2F)C(=O)N1`, the kinetic solubility was > 33.3 µg/mL.

For the molecule `CCN(CC)S(=O)(=O)c1ccc(=O)[nH]c1`, the solubility (kinetic) was > 34.5 µg/mL.

Regarding `Cc1cccc(NS(=O)(=O)c2csc(C(N)=O)c2)c1`, the solubility (kinetic) is > 44.5 µg/mL.

Consider `O=C(/C=C/c1c(Cl)nc2ccccn12)Nc1ccc(F)cc1`, for which the kinetic solubility is 4.6 µg/mL (≈ 14.6 µM).

The molecule `O=C(Cn1c(=O)oc2ccccc21)Nc1ccccc1Cl` gave a solubility (kinetic) of 6.8 µg/mL (≈ 22.5 µM). The solubility kinetic values of the last two molecules are within 1.5-fold of each other.

Turning to `COc1ccc(-c2oc(=O)n(C)c2-c2ccc(OC)cc2)cc1`, the kinetic solubility amounted to 17.3 µg/mL (≈ 55.6 µM).

The molecule `CCCOc1ccc(C(=O)NCC2OCCc3ccccc32)cc1OC` (stereo unspecified) showed a kinetic solubility of 4.7 µg/mL (≈ 13.2 µM).

In the case of `O=C(Nc1ccccc1)c1cc(S(=O)(=O)Nc2cccnc2)ccc1Cl`, the kinetic solubility is > 58.2 µg/mL.

As to `Cc1ccc(N2C(=O)CC(NCC3CCCO3)C2=O)cc1` (stereo unspecified), the solubility (kinetic) was > 43.3 µg/mL.

Take `CCC(=O)Nc1ccc2c(c1)nc1n2CCN(CCOC)C1`: the solubility (kinetic) was > 45.4 µg/mL.

`O=C(Nc1ccc(F)cc1)c1ccccc1NC(=O)C1CC=CCC1C(=O)O` (stereo unspecified): the kinetic solubility was > 57.4 µg/mL.

For the molecule `O=C(NC1CC1)C1CCN(S(=O)(=O)c2ccc(Cl)cc2)CC1`, the solubility (kinetic) amounted to 41.7 µg/mL (≈ 122 µM).

Regarding `CCn1cc(CCC(=O)NC2CCCC2)c2ccccc21`, the kinetic solubility was 40.4 µg/mL (≈ 142 µM).

As to `Cc1ccc(OCC(=O)NC(C)c2ccccc2)cc1` (stereo unspecified), the solubility (kinetic) is > 40.4 µg/mL.

Consider `COc1ccccc1C(NC(C)=O)c1c(O)ccc2ccc(O)cc12` (stereo unspecified), for which the kinetic solubility is > 50.6 µg/mL.

Consider `S=C(Nc1ccc(Cl)cc1Cl)N1CCCC1`, for which the solubility (kinetic) worked out at 8.6 µg/mL (≈ 31.2 µM).

Take `N#Cc1c(-c2cccc([N+](=O)[O-])c2)nc2n(c1=O)CCS2`: the kinetic solubility is > 45 µg/mL.

As for `Cc1cc(C)cc(NS(=O)(=O)c2csc(C(N)=O)c2)c1`, the kinetic solubility was > 46.6 µg/mL.

In turn, `COc1ccc(C(=O)Nc2nc(-c3ccccn3)cs2)cc1S(=O)(=O)N1CCOCC1` returned a solubility (kinetic) of 6.8 µg/mL (≈ 14.8 µM).

`O=C(CN1C(=O)CCC1=O)Nc1cccc2c1C(=O)NC2=O`: the kinetic solubility is > 45.2 µg/mL.

Regarding `C=CCn1c(SCC(N)=O)nc2sc3c(c2c1=O)CCC3`, the kinetic solubility turned out to be 38.6 µg/mL (≈ 120 µM).

On to `COc1cc2c(cc1OC)CN(C(=O)CCOc1ccccc1)CC2`, for which the kinetic solubility came to 30.3 µg/mL (≈ 88.8 µM).

With `CN1CCN(C(=O)c2cccn(Cc3cccc(Cl)c3)c2=O)CC1`, the solubility (kinetic) is > 51.9 µg/mL.

For the molecule `Cn1cc(CCC(=O)NCc2cccc(Cl)c2)c2ccccc21`, the solubility (kinetic) is 9.9 µg/mL (≈ 30.3 µM).

Consider `CC(C(=O)NCC1CCCCC1)N1CCc2ccccc2C1` (stereo unspecified), for which the solubility (kinetic) came out at 41.9 µg/mL (≈ 139 µM).

Consider `Cc1ccc(N(CC(=O)Nc2cc(C)ccc2C)S(C)(=O)=O)cc1`, for which the kinetic solubility was determined as 33.7 µg/mL (≈ 97.3 µM).

`Cc1nnc(SCC(=O)NC(=O)NC(C)C)s1`: the kinetic solubility is > 41.2 µg/mL.

In the case of `Cc1cccc(C(=O)OC(C)CN2C(C)CCCC2C)c1.Cl` (stereo unspecified), the solubility (kinetic) is > 48.9 µg/mL.

Consider `Cc1ccccc1NC(=O)NC1(C(=O)NCc2ccco2)CCCCC1`, for which the solubility (kinetic) was 8.5 µg/mL (≈ 23.9 µM).

On to `CC(=O)c1sc(NC(=O)c2ccc(F)cc2)nc1-c1ccccc1`, for which the solubility (kinetic) was < 0.4 µg/mL.

Take `Cc1[nH]c2ccc(C(=O)NCCN3CCCCCC3)cc2c1C`: the solubility (kinetic) is > 47 µg/mL.

`CCOc1ccc(S(=O)(=O)Nc2ccc(OC)nc2)cc1`: the solubility (kinetic) is > 46.3 µg/mL.

Molecule `CCC(C)c1ccc(NC(=O)C2CC3CCC2C3)cc1` (stereo unspecified) registered a solubility (kinetic) of 1.3 µg/mL (≈ 4.79 µM).

As to `CCCCn1c(N)c(N(CC)C(=O)c2ccco2)c(=O)[nH]c1=O`, the solubility (kinetic) is > 48.1 µg/mL.

Consider `CCc1nnc(NC(=O)CN2CCCC(C)C2)s1` (stereo unspecified), for which the kinetic solubility was > 40.3 µg/mL.

`CN1CCN(c2ccc(CNS(=O)(=O)c3cccc(F)c3)cc2)CC1`: the kinetic solubility turned out to be 6.7 µg/mL (≈ 18.4 µM).

Turning to `CCC(CC)C(=O)NCc1cccnc1`, the solubility (kinetic) is > 30.9 µg/mL.

In turn, `CCOC(=O)c1cccc(NC(=S)NCc2ccc(C)cc2)c1` returned a solubility (kinetic) of 0.4 µg/mL (≈ 1.22 µM).

Consider `CC1CN(C(=O)CS(=O)(=O)Cc2ccccc2)CC(C)O1` (stereo unspecified), for which the solubility (kinetic) is > 46.7 µg/mL.

With `Cc1cccc(NC(=O)N2CCCCCC2)c1C`, the kinetic solubility was > 37 µg/mL.

Molecule `Cc1cccc(NCc2ccc(Br)cc2)n1` came in with a solubility (kinetic) of 12 µg/mL (≈ 43.3 µM).

The molecule `COc1cc2ccccc2cc1C(=O)Nc1ccncc1` displayed a solubility (kinetic) of 38.6 µg/mL (≈ 139 µM).

`O=C(NCC(=O)N1CC=C(c2ccccc2)CC1)c1ccc(OC(F)F)cc1` yielded a kinetic solubility of 8.2 µg/mL (≈ 21.2 µM).

With `CN(C(=O)CC1C(=O)NCCN1Cc1ccc(F)cc1)C1CCOCC1` (stereo unspecified), the solubility (kinetic) was > 54.5 µg/mL.

Take `COCCn1c(Cc2ccccc2)nnc1SCC(=O)Nc1ccccc1`: the solubility (kinetic) is > 57.4 µg/mL.

The values above are taken from PubChem BioAssay AID1996.
